Data on 2 molecules can be found in patent publication US20220249616A1, “Osteocrin, Lebetin or ANP for Destroying Bacterial Biofilms” (priority 2019, published 2022).

One data set relates to P. aeruginosa biofilm. Particulars: Desriac et al. 2017, 2018; Rosay et al. 2015; cited from earlier work.
The subject of another data set is P. aeruginosa. Particulars: observed previously; by activating bacterial quorum-sensing systems; cited from earlier work.
A further data set relates to P. aeruginosa P14. The data set is described as follows: Growth of P. aeruginosa in liquid medium in the presence of ANP. Format: cell-based, Pseudomonas aeruginosa. Particulars: ANP at 1 μM and 0.1 μM. As to the method:
The bacterial strains were cultured at 37° C. in Luria Bertani medium (LB) under agitation.
To determine a potential direct effect of ANP on the growth of P. aeruginosa, the inventors studied the impact of ANP at 1 μM and 0.1 μM on the growth of P. aeruginosa P14 in a liquid medium.

Data set [1] deals with AmiC sensor of P. aeruginosa (Pseudomonas aeruginosa, UniProt P27017). Particulars: Rosay et al. (2015); cited from earlier work.
For data set [2], the system named is preformed biofilm of P. aeruginosa PA14. Briefly: microbe, parasite or virus in culture. Particulars: for % Inhibition (30 min) / Biovolume (30 min): 30 min exposure; for Biovolume (30 min): non-treated 22.19; for Biovolume (2 h): non-treated 21.1 (mean of all controls). As to the method:
Briefly, from an 18 h pre-culture, a bacterial suspension at OD600=0.08 prepared in sterile physiological saline solution was injected into each channel of the flow chamber. The bacteria were left for 2 h at 37° C. under static conditions (no flow) so that they adhered to the glass slide. Study of biofilm formation was then conducted under a flow of LB medium (2.5 ml/h) for 24 h at 37° C.
[…] Treatment of the preformed biofilm was conducted for 2 h at 37° C. under static conditions.
(§1) Treatment of the preformed biofilm was conducted for 2 h at 37° C. under static conditions.
To test the membrane integrity of the bacteria, a mixture of 5 μM SYTO 9 Green and 0.3 μM propidium iodide (PI) was used (Live/Dead BacLight Bacterial Viability Kit, Invitrogen).
as §1, §1, §1, §1
Treatment of the biofilm was conducted for 2 h at 37° C. under static conditions. […] Next, 300 μl of tobramycin (50 μg/ml) or 300 μl of milliQ sterile water (control conditions) were injected into the two channels of the flow chamber pre-exposed to ANP. The second treatment of the preformed biofilm was again conducted for 2 h at 37° C. under static conditions.

Data set [3] relates to P. aeruginosa biofilm in formation. The data set is described as follows: Formation of the P. aeruginosa biofilm under dynamic conditions. Particulars: ANP 0.1 μM. It is filed as cell-based, Pseudomonas aeruginosa. As to the method: After 3 h pre-culture in LB medium at 37° C., P. aeruginosa was inoculated at OD600=0.08 in LB medium and sub-cultured for 2 h.
The ANP (Calbiochem Merck) was added 2 h after the start of culture, a time corresponding to the middle of the exponential growth phase of the bacteria. Final bacterial density and absence of contamination were controlled by seeding.
The biofilms were formed under dynamic conditions at 37° C. in a 3-channel flow chamber as described in Bazire et al. (2010) J. Bacteriol. 192:3001-3010. Briefly, from an 18 h pre-culture, a bacterial suspension at OD600=0.08 prepared in sterile physiological saline solution was injected into each channel of the flow chamber. The bacteria were left for 2 h at 37° C. under static conditions (no flow) so that they adhered to the glass slide. Study of biofilm formation was then conducted under a flow of LB medium (2.5 ml/h) for 24 h at 37° C.

Data set [4] concerns A549 human pulmonary epithelial cells infected with P. aeruginosa PA14. The data set is described as follows: LDH release by A549 cells infected with P. aeruginosa PA14 pre-treated with ANP (bacterial cytotoxicity). It is filed as cell-based. Particulars: for % LDH (dead cells): 6 h, MOI 10, PA14 non-treated 56.4 ± 5.5. The method, then:
The line of human pulmonary epithelial cells of type II A549 (ATCC-CCL185TM, ATCC Manassas, Va.) was placed in culture at 37° C. under 5% CO2 atmosphere in DMEM medium (Lonza) supplemented with 10% foetal calf serum (Lonza) and 1% penicillin and streptomycin (Penistrep, Lonza). Under routine cell culture, the cells were seeded in a 25 ml flask and used at 80% confluence.
For cytotoxicity tests, the cells were seeded in 24-well plates to a final density of 3×10^5 cells per well and cultured 48 h before use. For a minimum time of 24 h before the infection tests, the cells were deprived of antibiotics and foetal calf serum through the addition of a medium without fresh serum.
The amount of LDH released by the eukaryote cells in the presence of bacteria, whether or not exposed to ANP (concentration of 1 μM at 10 nM), was determined using the Cytotox 96 enzymatic test (Promega, Charbonnières, France). The A549 cells were incubated for 6 h on a control (without treatment) or with P. aeruginosa PA14 (pre-treated with ANP) with a multiplicity of infection of 10. A lysis buffer consisting of Triton X-100 solution (9% in water), was employed to determine the maximum LDH potentially released by the A549 cells under the experimental conditions (100% LDH release). A level of background noise was determined using the culture medium alone and defined as 0% LDH release, to exclude contribution by the culture medium. Percentage LDH release in the cell population was then calculated with the equation: […]
A general note: Release of lactate dehydrogenase indicates damage to the cell membrane.

The mark [5] stands for this setting: ANP 300 ng/ml (0.1 μM), 2 h exposure.

Chain of AmiC sensor of P. aeruginosa (P27017 whole entry): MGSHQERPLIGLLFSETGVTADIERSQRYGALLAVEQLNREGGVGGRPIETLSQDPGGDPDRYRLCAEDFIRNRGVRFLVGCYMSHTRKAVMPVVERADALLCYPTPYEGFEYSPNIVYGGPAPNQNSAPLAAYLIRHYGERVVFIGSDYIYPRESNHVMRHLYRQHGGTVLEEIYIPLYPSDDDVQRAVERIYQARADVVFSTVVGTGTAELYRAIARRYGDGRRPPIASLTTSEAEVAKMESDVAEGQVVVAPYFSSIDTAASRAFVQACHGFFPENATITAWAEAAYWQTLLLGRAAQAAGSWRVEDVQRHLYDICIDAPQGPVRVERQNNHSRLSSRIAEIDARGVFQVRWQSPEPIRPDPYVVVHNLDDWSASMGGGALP

Take C-type Natriuretic Peptide [CNP]: the “formation of P. aeruginosa biofilm” value in the data set on P. aeruginosa biofilm is on record as “prevent the formation”. Also, the “bacterial virulence and cytotoxicity” value in the data set with P. aeruginosa is “slightly increased”.
Turning to `CC[C@H](C)[C@@H]1NC(=O)[C@H](CCCNC(=N)N)NC(=O)[C@H](CC(=O)O)NC(=O)[C@H](CCSC)NC(=O)[C@H](CCCNC(=N)N)NC(=O)CNC(=O)CNC(=O)[C@H](Cc2ccccc2)NC(=O)[C@@H](NC(=O)[C@H](CO)NC(=O)[C@H](CO)NC(=O)[C@H](CCCNC(=N)N)NC(=O)[C@H](CCCNC(=N)N)NC(=O)[C@H](CC(C)C)NC(=O)[C@@H](N)CO)CSSC[C@@H](C(=O)N[C@@H](CC(N)=O)C(=O)N[C@@H](CO)C(=O)N[C@@H](Cc2ccccc2)C(=O)N[C@@H](CCCNC(=N)N)C(=O)N[C@@H](Cc2ccc(O)cc2)C(=O)O)NC(=O)CNC(=O)[C@H](CC(C)C)NC(=O)CNC(=O)[C@H](CO)NC(=O)[C@H](CCC(N)=O)NC(=O)[C@H](C)NC(=O)CNC1=O` [ANP, Atrial Natriuretic Peptide], in the data set on P. aeruginosa P14, the “effect on growth of P. aeruginosa” value is recorded as “None of the tested ANP concentrations affected bacterial growth”. Further, the “formation of P. aeruginosa biofilm” value in the data set with P. aeruginosa biofilm was “prevent the formation”. Besides, the “binding onto the AmiC sensor of P. aeruginosa” value in data set [1] was “strong affinity”. Also, the “% Inhibition (30 min)” value in data set [2] (ANP 0.3 ng/ml) is 57.5 (*) %; in data set [2] (ANP 3 ng/ml), 59.1 (*) %; in data set [2] (ANP 30 ng/ml), 69.0 (*) %; in data set [2] (ANP 300 ng/ml (0.1 μM)), 80.2 (*) %. The “Biovolume (30 min)” value in data set [2] (ANP 0.3 ng/ml) was 9.5 μm^3/μm^2; in data set [2] (ANP 3 ng/ml), 8.8 μm^3/μm^2; in data set [2] (ANP 30 ng/ml), 6.7 μm^3/μm^2; in data set [2] (ANP 300 ng/ml (0.1 μM)) it was 4.4 μm^3/μm^2. The “% Inhibition (2 h)” value was 45.1 (**) % in data set [2] (ANP 0.3 ng/ml, 2 h exposure); 65.9 (***) % in data set [2] (ANP 3 ng/ml, 2 h exposure); 72.5 (***) % in data set [2] (ANP 30 ng/ml, 2 h exposure); 81.4 (***) % in data set [2] (setting [5]). Moreover, the “Biovolume (2 h)” value in data set [2] (ANP 0.3 ng/ml, 2 h exposure) turned out to be 10.6 μm^3/μm^2; in data set [2] (ANP 3 ng/ml, 2 h exposure), 6.3 μm^3/μm^2; in data set [2] (ANP 30 ng/ml, 2 h exposure), 4.4 μm^3/μm^2; in data set [2] (setting [5]) it was 4.9 μm^3/μm^2. Besides, in data set [2] (ANP 0.1 μM for 2 h, even 30 minutes), the biofilm structure dispersed result is listed as “about 80%”. In data set [2] (ANP 0.1 μM, 2 h exposure), the “thickness of the biofilm” value is given as “major reduction”. Moreover, the “bacterial biomass reduced compared with control” value in data set [2] (ANP 0.1 μM, 2 hours exposure (P<0.001)) was 81.4±4.1%. Also, the % Inhibition (commonly the percentage by which the read-out fell short of the control) in data set [2] (ANP 10^−8 M alone, 2 h (colistin experiment)) came out at 73.5%; in data set [2] (ANP 10^−8 M alone, 2 h (imipenem experiment)) it was 75.4%; in data set [2] (ANP 10^−8 M alone, 2 h (polymyxin B experiment)), 75.3%; in data set [2] (ANP 10^−9 M 2 h, then sterile water 2 h (sequential experiment)) it was 68.7%; in data set [2] (ANP 10^−9 M alone, 2 h (table with tobramycin 10 μg/ml)), 66.4%; in data set [2] (ANP 10^−9 M alone, 2 h (table with tobramycin 50 μg/ml)), 66.4%. For the same molecule, the Biovolume in data set [2] (ANP 10^−8 M alone, 2 h, non-treated 18.2 (polymyxin B experiment)) is 4.5 μm^3/μm^2; in data set [2] (ANP 10^−8 M alone, 2 h, non-treated 18.5 (colistin experiment)), 4.9 μm^3/μm^2; in data set [2] (ANP 10^−8 M alone, 2 h, non-treated 28.0 (imipenem experiment)) it was 6.9 μm^3/μm^2; in data set [2] (ANP 10^−9 M 2 h, then sterile water 2 h (sequential experiment), non-treated 13.1) it was 4.1 μm^3/μm^2; in data set [2] (ANP 10^−9 M alone, 2 h, non-treated 13.5 (table with tobramycin 10 μg/ml)) it was 4.53 μm^3/μm^2; in data set [2] (ANP 10^−9 M alone, 2 h, non-treated 13.5 (table with tobramycin 50 μg/ml)), 4.53 μm^3/μm^2. The “remaining bacterial biomass reduced compared with control” value in data set [2] (ANP (0.1 μM per Example 1), 30 minutes exposure (P<0.05)) is recorded as 80.2±2.0%. Besides, the “pre-established P. aeruginosa biofilms destroyed” value in data set [2] (low dose (on and after 0.1 nM), as soon as 30 min after administration) is “about 80%”. Also, the “dispersion of established biofilm (observation)” value in data set [2] (on and after the lowest concentration of 0.3 ng/ml, as soon as after exposure for 30 min) is listed as “strongly dispersed”. Moreover, in data set [3], the “formation of a P. aeruginosa biofilm” value is recorded as “fully prevents”. The “impact on the cytotoxic activity of P. aeruginosa in pulmonary cells” value in data set [4] (ANP 1 μM to 10 nM) is reported as “no impact”. The “% LDH (dead cells)” value was 58.9 ± 5.8% in data set [4] (PA14 + ANP 10^−6 M), 53.5 ± 5.3% in data set [4] (PA14 + ANP 10^−7 M) and 54.5 ± 5.5% in data set [4] (PA14 + ANP 10^−8 M).
